Measurements published in paper PMC4535766, “Antiprotozoal Activity Profiling of Approved Drugs: A Starting Point toward Drug Repositioning” (PLoS ONE, 2015).
Where a name gives a salt, the structure may show the parent alone. Read-outs that look alike come from different tables or passages of the source.

Experiments:
[1] = tested on: axenic amastigotes of L. donovani, strain MHOM-ET-67/L82; assay: In vitro activity against L. donovani axenic amastigotes, serial drug dilution assay; assay type: cell-based, Leishmania donovani; details: Leishmania donovani
Description: (§1) Drug stock solutions (10mg/ml) were in DMSO (100%). […] Selectivity index (SI) was calculated as IC50 L6 cells/IC50 parasite.

[2] = tested on: T. b. rhodesiense strain STIB 900, trypomastigotes; assay: In vitro activity against T. b. rhodesiense, serial drug dilution assay; details: for IC50: Trypanosoma brucei; for selectivity ratio: rat
Description: as §1

[3] = tested on: intracellular amastigotes of L. donovani strain MHOM-ET-67/L82; assay: Activity against Leishmania donovani intracellular amastigotes in mouse peritoneal macrophages; details: Leishmania donovani, Peritoneal macrophage, in Mus musculus
Description: After 24 h 1.2 x 10^5 amastigote L. donovani in 100 μl were added. The amastigotes were taken from an axenic culture grown at pH 5.4. Four hours later, the medium containing free amastigote forms was removed and replaced by fresh medium. The next day the medium was replaced by medium with or without a serial drug dilution of seven 3-fold dilution steps covering a range from 30 to 0.04 μg/ml. Parasite growth in the presence of the drug was compared to control wells. After 96 h of incubation, the medium was removed and the slides fixed with methanol for 10 min followed by staining with a 10% Giemsa solution. Infected and non-infected macrophages were counted for the control cultures and those exposed to the serial drug dilutions. The infection rates were determined. The results were expressed as a percentage reduction in parasite burden compared to control wells, and the IC50 was calculated by linear regression analysis. The collection of mouse peritoneal macrophages was done at the Swiss Tropical and Public Health Institute (Basel) according to the rules and regulations for the protection of animal rights ("Tierschutzverordnung") of the Swiss "Bundesamt für Veterinärwesen".

[4] = in vitro; details: rat
Description: as §1

[5] = tested on: T. cruzi, strain Tulahuen C4, intracellular amastigotes; assay: microbe, parasite or virus in culture; details: Trypanosoma cruzi, TULAHUEN
Description: as §1

[6] = tested on: P. falciparum strain K1; assay: In vitro activity against P. falciparum, serial drug dilution assay; details: for IC50: Plasmodium falciparum; for Activity against P. falciparum (in words): in vitro; for selectivity ratio: rat, Selectivity index: IC50 Cytotoxicity L6/ IC50 P. falciparum
Description: as §1

[7] = Cytotoxicity on macrophages infected with L. donovani; assay type: cell-based, mouse; details: mouse
[8] = axenic amastigotes, strain MHOM-ET-67/L82, means of two independent assays, read-out: IC50 L. don. axen.
[9] = 96 h, read-out: IC50 L. don. intracell
[10] = macrophages infected with L. donovani, read-out: IC50 Cytotox. mac.inf.
[11] = L6 cells, IC50 Cytotox. L6, L6 cells, means of two independent assays
[12] = mouse peritoneal macrophages infected with L. donovani, macrophages infected with L. donovani, read-out: IC50 Cytotox. mac.inf.
[13] = L. donovani axenic amastigotes, read-out: L. don. axen. IC50
[14] = read-out: L. don. intracell IC50
[15] = infected macrophages, read-out: Cytotox. mac.inf. IC50

Row | SMILES | IC50 [1, 8] [µM] | IC50 ([2]; read-out: IC50 T. b. rhod.) [µM] | IC50 [3, 9] [µM] | IC50 ([4]; IC50 Cytotox. L6) [µM] | IC50 ([5]; read-out: IC50 T. cruzi) [µM] | IC50 ([6]; K1, read-out: IC50 P. falc. K1) [µM] | IC50 at 96 h [7, 10] [µM] | also measured
1 | NNC(=O)c1ccncc1 [Isoniazide] | > 729 | > 729 | > 219 | 602 | 383 | 246 | > 219 | –
2 | CN(C)CCCN1c2ccccc2Sc2ccc(Cl)cc21 [Chlorpromazine] | 48.5 | 1.25 | > 9.41 | 12.3 | 17.2 | 3.03 | 31.4 | –
3 | Cc1nc2ccccn2c(=O)c1CCN1CCC(C(=O)c2ccc(F)cc2)CC1 [Pirenperone] | 162 | 30 | > 76.2 | – | 128 | 4.35 | – | IC50 [4, 11]: 232 µM; IC50 at 96 h [7, 12]: > 76.2 µM
4 | CC(N)C12CC3CC(CC(C3)C1)C2 (stereo not drawn) [Rimantadine] | 427 | 13.8 | > 167 | – | 321 | 0.97 | – | selectivity ratio ([2]; L6 cells versus T. b. rhodesiense STIB 900 trypomastigotes): 23; IC50 [4, 11]: 311 µM; Activity against P. falciparum (in words) [6]: selective activities; selectivity ratio [6]: 321; IC50 at 96 h [7, 12]: > 167 µM
5 | Cc1cccc(C)c1OCC(=O)N[C@@H](Cc1ccccc1)[C@@H](O)C[C@H](Cc1ccccc1)NC(=O)[C@H](C(C)C)N1CCCNC1=O [Lopinavir] | 11.8 | 10.8 | > 47.7 | 18.9 | 15.4 | 1.92 | > 47.7 | –
6 | COC1=CC(=O)C[C@@H](C)[C@]12Oc1c(Cl)c(OC)cc(OC)c1C2=O [Griseofulvin] | – | – | – | – | – | – | – | IC50 [1, 13]: 87 µM; IC50 ([2]; read-out: T. b. rhod. IC50): 40 µM; IC50 [3, 14]: > 85 µM; IC50 ([4]; Cytotox. L6 IC50): 20.5 µM; IC50 ([5]; read-out: T. cruzi IC50): 87.3 µM; IC50 ([6]; K1, read-out: P. falc. IC50): 75.1 µM; IC50 at 96 h [7, 15]: > 85 µM
7 | CC(C)(C)NC(=O)[C@@H]1C[C@@H]2CCCC[C@@H]2CN1C[C@@H](O)[C@H](Cc1ccccc1)NC(=O)[C@H](CC(N)=O)NC(=O)c1ccc2ccccc2n1 [Saquinavir] | 77.4 | 12.3 | > 44.7 | 18.2 | 17.1 | 11.9 | > 44.7 | –
8 | O=C(O)COCCN1CCN(C(c2ccccc2)c2ccc(Cl)cc2)CC1 (stereo not drawn) [Cetirizine (Hydrochloride), Cetirizine] | 186 | 99.5 | > 70.5 | 149 | 120 | 20 | > 70.5 | –
9 | Nc1nc2c(ncn2CCC(CO)CO)c(=O)[nH]1 [Penciclovir] | > 395 | > 395 | > 118 | 220 | 254 | 169 | > 118 | –
10 | CC(C)(C)NC(=O)[C@@H]1CN(Cc2cccnc2)CCN1C[C@@H](O)C[C@@H](Cc1ccccc1)C(=O)N[C@H]1c2ccccc2C[C@H]1O [Indinavir (Sulfate), Indinavir] | > 141 | 48.2 | > 42.3 | – | 93.5 | 6.03 | > 42.3 | IC50 [4]: > 141 µM
11 | Fc1ccc([C@@H]2CCNC[C@H]2COc2ccc3c(c2)OCO3)cc1 [Paroxetine] | > 273 | 1.13 | > 9.11 | 13.8 | 14.4 | 9.23 | – | selectivity ratio [2]: 12; MCC at 96 h [7, 10]: 30.4 µM
12 | CN(C)CCC=C1c2ccccc2CCc2ccccc21 [Amitriptyline] | 131 | 3.03 | > 10.8 | – | 35.1 | 1.16 | 36.1 | selectivity ratio ([2]; Selectivity index: IC50 Cytotoxicity L6/ IC50 T. b. rhodesiense): 14; IC50 [4]: 42.2 µM; Activity against P. falciparum (in words) [6]: micromolar range
13 | OC(c1cc(C(F)(F)F)nc2c(C(F)(F)F)cccc12)C1CCCCN1 (stereo not drawn) [Mefloquine (Hydrochloride), Mefloquine] | – | – | – | 3.25 | – | 0.002 | – | IC50 [1, 13]: 38.6 µM; IC50 ([2]; read-out: T. b. rhod. IC50): 0.53 µM; IC50 [3, 14]: 2.41 µM; IC50 ([5]; read-out: T. cruzi IC50): 4.48 µM; IC50 ([6]; K1, read-out: P. falc. IC50): 0.0024 µM; selectivity ratio [6]: 1350; MCC at 96 h [7, 15]: 7.23 µM
